Source: patent US11672775B2, “Treprostinil prodrugs” (United Therapeutics Corporation, priority 2016, dated 2023)

Legend:
Sprague Dawley rats [1] = assay: Rat intraplantar injection model, clinical observation score (Example 9); type: in vivo, Sprague Dawley rat
Experimental: (§1) Male Sprague Dawley rats (n=112) were allocated into 14 groups of 8/group. The study was run in 2 cycles, on consecutive days, 7 groups per cycle. Each cycle was composed of a Saline group, PBS group, which served as the control, and also treprostinil at a dose of 100 μg/mL or 1 μg/mL.
(§2) Animals were administered 0.1 mL of test material by subcutaneous injection into the paw pad (Intraplantar injection) at time zero. Animals were subsequently evaluated for their response to mechanical (von Frey filaments) and thermal stimuli, 15 and 90 minutes post-injection. The von Frey test was conducted prior to the thermal test, which followed immediately within minutes for each animal. In addition, clinical observation scoring of the animal's reaction to injection was conducted. FIG. 16 schematically illustrates the study design.
A Clinical observation score was assigned by assessing for redness, swelling and paw placement.

rat = assay: Rat intraplantar injection model, mean clinical score (Example 11); details: each of 15 min and 90 min
Text: FIG. 31 presents mean clinical score of cycle 1 (points). Increased/Higher score indicates more observations of adverse events.
FIG. 32 presents mean clinical score of cycle 2 (points). Increased/Higher score indicates more observations of adverse events.
FIGS. 31 and 32 present mean clinical score for Cycles 1 and 2 respectively.

Sprague Dawley rats [2] = assay: Clinical observations following subcutaneous injection (Example 12); type: in vivo, Sprague Dawley rat; details: 0.1 and 0.3 mg/kg SC; some animals; approximately 4 hours postdosing
Experimental: (§3) Clinical observations were performed at approximately 6 hours prior to dosing, at the completion of dosing and at approximately 4 hours postdosing.

Sprague Dawley rats [3] = assay: Rat intraplantar injection model, thermal pain sensitivity (Example 10); type: in vivo, Sprague Dawley rat
Experimental: (§4) Male Sprague Dawley rats (n=56) were allocated into 7 groups of 8 animals per group. […] Each group was compared to the phosphate buffer (50-mM phosphate buffer with 50-mM sodium chloride at pH=7.4) treated group, which served as the control (Group 1).
as §2, with “zero. Then, the animals” for “zero. Animals”, “conducted.” for “conducted. FIG. 16 schematically illustrates the study design.”
(§5) The sensitivity of animals to a thermal pain stimulus was assessed immediately following the von Frey test. The time until withdrawal of the right-injected leg from a heat source was measured, and the lower (faster) the time of response represents a greater sensitivity to the stimulus. The test was performed 15 and 90 minutes post-test item injection.

Sprague Dawley rats [4] = assay: Rat intraplantar injection model, thermal pain sensitivity (Example 9); type: in vivo, Sprague Dawley rat; details: 1 μg/mL or 100 μg/mL; 15 minutes post-administration
Experimental: as §1, §2
as §5, with “post-Test Item” for “post-test item”

Sprague Dawley rats [5] = assay: Cardiovascular assessment by radiotelemetry following subcutaneous injection (Example 12); type: in vivo, Sprague Dawley rat
Experimental: as §3

Sprague Dawley rats [6] = assay: Rat intraplantar injection model, von Frey test (Example 9); type: in vivo, Sprague Dawley rat; details: 1 μg/mL or 100 μg/mL; 15 and 90 minutes post-injection
Experimental: as §1, §2
Mechanical pain sensitivity was tested using the von Frey test, which measures the withdrawal force threshold of the animals. The lower the force applied represents a greater sensitivity to the stimulus. The von Frey test was performed 15 and 90 minutes post-Test Item injection.

Sprague Dawley rats [7] = assay: Rat intraplantar injection model, von Frey test (Example 10); type: in vivo, Sprague Dawley rat; details: 1 μg/mL or 100 μg/mL; 15 and 90 minutes post-injection
Experimental: as §4
as §2, with “zero. Then, the animals” for “zero. Animals”, “conducted.” for “conducted. FIG. 16 schematically illustrates the study design.”
Mechanical pain sensitivity was tested using the von Frey test, which measures the withdrawal force threshold of the animals. The lower the force applied represents a greater sensitivity to the stimulus. The von Frey test was performed 15 and 90 minutes post-test item injection.

Sprague Dawley rats [8] = assay: Rat intraplantar injection model, clinical observation score (Example 10); type: in vivo, Sprague Dawley rat
Experimental: as §4
as §2, with “zero. Then, the animals” for “zero. Animals”, “conducted.” for “conducted. FIG. 16 schematically illustrates the study design.”
A clinical observation score was assigned by assessing for redness, swelling and paw placement.

[9] = 0.1 mg/kg SC (first statement as printed)

Structure (SMILES): CCCCC[C@H](O)CC[C@@H]1[C@H]2Cc3cccc(OCC(=O)O)c3C[C@H]2C[C@H]1O [Treprostinil]
- clinical score (Sprague Dawley rats [1]; 1 μg/mL (cycle 2), both time points (15 and 90 min)): non-zero
- clinical score vs PBS treated group (Sprague Dawley rats [1]; 1 μg/mL or 100 μg/mL, 15 and 90 minutes post-injection): statistically significant increase in the clinical score
- clinical score (Sprague Dawley rats [1]; 100 μg/mL (cycle 1), 15 min): non-zero
- clinical score vs PBS group (Sprague Dawley rats [1]; 100 μg/mL (cycle 1), 90 minutes post-injection): non-zero
- mean clinical score of cycle 2 (rat; 1 μg/mL): non-zero
- mean clinical score of cycle 1 (rat; 100 μg/mL): non-zero
- clinical observations (Sprague Dawley rats [2]): flushed extremities
- thermal paw withdrawal time vs phosphate buffer treated group (Sprague Dawley rats [3]; 1 μg/mL or 100 μg/mL, 15 minutes post-administration): statistically significantly faster paw withdrawal time
- sensitivity to heat stimulation vs vehicle (phosphate buffer) group (Sprague Dawley rats [3]; 100 μg/mL, 90 minutes post-injection): statistically significantly increased sensitivity
- thermal paw withdrawal time vs PBS treated group (Sprague Dawley rats [4]): statistically significantly faster paw withdrawal time
- body temperature change (Sprague Dawley rats [5]; 0.000125 mg/kg or 0.00125 mg/kg SC): No significant changes
- diastolic blood pressure change (Sprague Dawley rats [5]; 0.03 mg/kg SC): marginally lower
- mean blood pressure change (Sprague Dawley rats [5]; 0.03 mg/kg SC): marginally lower
- mean blood pressure, time of nadir (Sprague Dawley rats [5]; 0.03 mg/kg SC): 30 min
- systolic blood pressure change (Sprague Dawley rats [5]; 0.03 mg/kg SC): marginally lower
- body temperature changes resolved by (Sprague Dawley rats [5]; 0.1 mg/kg SC): approximately 3 hours
- diastolic blood pressure lowering persisted through (Sprague Dawley rats [5]; 0.1 mg/kg SC): 90 min
- diastolic blood pressure, time of nadir (Sprague Dawley rats [5]; 0.1 mg/kg SC): 30 min
- mean blood pressure lowering persisted through (Sprague Dawley rats [5]; 0.1 mg/kg SC): 90 min
- mean blood pressure, time of nadir (Sprague Dawley rats [5]; 0.1 mg/kg SC): 30 min
- systolic blood pressure lowering persisted through (Sprague Dawley rats [5]; 0.1 mg/kg SC): 90 min
- systolic blood pressure, time of nadir (Sprague Dawley rats [5]; 0.1 mg/kg SC): 30 min
- body temperature change (Sprague Dawley rats [5]; [9]): Marginally lower
- body temperature change persisted through (Sprague Dawley rats [5]; [9]): approximately 3 hours
- body temperature changes resolved by (Sprague Dawley rats [5]; 0.3 mg/kg SC): ~4 h
- diastolic blood pressure lowering persisted through (Sprague Dawley rats [5]; 0.3 mg/kg SC): 180 min
- diastolic blood pressure, time of nadir (Sprague Dawley rats [5]; 0.3 mg/kg SC): 20 min
- mean blood pressure lowering persisted through (Sprague Dawley rats [5]; 0.3 mg/kg SC): 180 min
- mean blood pressure, time of nadir (Sprague Dawley rats [5]; 0.3 mg/kg SC): 20 min
- systolic blood pressure lowering persisted through (Sprague Dawley rats [5]; 0.3 mg/kg SC): 120 min
- systolic blood pressure, time of nadir (Sprague Dawley rats [5]; 0.3 mg/kg SC): 20 min
- pulse pressure change (Sprague Dawley rats [5]; 0.3 mg/kg SC, from 20 to 40 minutes postdosing): Marginally lower
- body temperature change (Sprague Dawley rats [5]; 0.1 and 0.3 mg/kg SC): Significantly lowered
- diastolic blood pressure change (Sprague Dawley rats [5]; 0.1 and 0.3 mg/kg SC): Significantly lower
- diastolic blood pressure, earliest time point of lowering (Sprague Dawley rats [5]; 0.1 and 0.3 mg/kg SC): 10 min
- mean blood pressure change (Sprague Dawley rats [5]; 0.1 and 0.3 mg/kg SC): Significantly lower
- mean blood pressure, earliest time point of lowering (Sprague Dawley rats [5]; 0.1 and 0.3 mg/kg SC): 10 min
- systolic blood pressure change (Sprague Dawley rats [5]; 0.1 and 0.3 mg/kg SC): Significantly lower
- systolic blood pressure, earliest time point of lowering (Sprague Dawley rats [5]; 0.1 and 0.3 mg/kg SC): 10 min
- dose resulting in significantly lower body temperature (Sprague Dawley rats [5]; single SC injection): ≥ 0.030 mg/kg
- dose resulting in significantly lower systolic, diastolic, mean arterial blood pressure (Sprague Dawley rats [5]; single SC injection): ≥ 0.1 mg/kg
- heart rate change (Sprague Dawley rats [5]; single SC injection, all doses): Higher heart rates
- time by which heart rate changes resolved / recovered postdosing (Sprague Dawley rats [5]; single SC injection, all groups): approximately 5 hours
- diastolic blood pressure change (Sprague Dawley rats [5]; ≤0.030 mg/kg SC): No meaningful changes
- mean blood pressure change (Sprague Dawley rats [5]; ≤0.030 mg/kg SC): No meaningful changes
- systolic blood pressure change (Sprague Dawley rats [5]; ≤0.030 mg/kg SC): No meaningful changes
- von Frey withdrawal force threshold vs PBS-treated group (Sprague Dawley rats [6]): reduced withdrawal force threshold
- von Frey withdrawal force threshold vs phosphate buffer group (Sprague Dawley rats [7]): reduced withdrawal force threshold
- mean clinical score (Sprague Dawley rats [8]; 100 μg/mL, each of 15 min and 90 min): non-zero
- clinical score vs phosphate buffer treated group (statistically significant increase) (Sprague Dawley rats [8]; both doses, 90 minutes): same effect
